Holding throughout (type): cell-based, HIV-1
The subject of assay [1] is HIVLAI containing the M41L/L210W/T215Y mutations (AZT^R HIVLAI) passaged in increasing concentrations of AZT. The experiment in a line: AZT susceptibility of virus passaged in increasing AZT, selection starting with AZT^R HIVLAI; single-cycle assay in P4/R5 cells. Conditions: for Fold-Resistance: compared to wild-type passaged without AZT. How it is done:
Selection of AZT-resistant viruses. Resistant virus was selected in two independent experiments by the passage of wild-type HIVLAI or HIVLAI containing the M41L/L210W/T215Y mutations (AZT^R HIVLAI) in MT-2 cells in increasing concentrations of AZT. To initiate each selection experiment, MT-2 cells (1×10^6) were pretreated for two hours with 0.5 μM and 25 μM AZT for wild-type HIVLAI and AZT^R HIVLAI, respectively, before virus was added. Viral replication was monitored by CPE. At +3/4 CPE (3 or 4 syncytia per field at 100× magnified field), cell-free supernatant was harvested and 0.1 ml of supernatant was added to fresh MT-2 cells to initiate a new passage. The concentration of AZT was doubled every three passages. The selection pressure was increased from an initial AZT concentration of 0.5 μM to a final concentration of 32 μM for wild-type HIVLAI, and from 25 μM to 150 μM for the AZT^R HIVLAI. The concentration of drug required to inhibit viral replication by 50% (IC50) was calculated every five passages to identify changes in AZT susceptibility, and fold-resistance was determined by dividing the IC50 of the mutant virus by the IC50 of wild-type HIV-1LAI. The genotype of the passaged virus was determined as described above.
(§1) Drug susceptibility assays. NRTI susceptibility was determined in P4/R5 cells as described previously (Parikh, U. M., et al. 2005. Antimicrob. Agents Chemother. 49:1139-44). Briefly, threefold dilutions of inhibitor were added to P4/R5 cells in triplicate and cells were infected with an amount of virus that produced 100 relative units of light (RLU) in no drug, virus control wells. After 48 hours, the cells were lysed (Gal-Screen; Tropix/Applied Biosystems, Foster City, Calif.) and the RLU was measured using a ThermoLabSystems luminometer (Waltham, Mass.). The IC50 and fold-resistance were calculated as described above. IC50 values from at least three independent experiments were log10 transformed and compared for statistically significant differences using the two-sample Student's t test.
Selection of AZT-resistant virus. Two independent AZT selection experiments were conducted. One starting with wild-type HIV-1LAI and the second starting with AZT HIV-1LAI (encoding M41L/L210W/T215Y). Both viruses were serially passaged in MT-2 cells in increasing concentrations of AZT. After every 5 passages, AZT susceptibility was measured in a single-cycle viral replication assay in P4/R5 cells (described in Materials and Methods). Viral RNA was extracted, converted to cDNA and the entire coding region of RT (residues 1-560) was PCR amplified and sequenced to monitor the appearance of mutations. In the selection experiment starting with HIV-1LAI, AZT susceptibility was reduced 66-fold by passage 35 and two polymerase domain TAMs were identified: D67N and K70R (Table 1).

For assay [2], the system named is HIVLAI RT 67N/70R/215F/509L. As to the kind of experiment: Drug susceptibility assay in P4/R5 cells, site-directed mutant.
For another assay, the system named is Wild-type HIVLAI. The experiment in a line: Drug susceptibility assay in P4/R5 cells, recombinant virus. The note with it: Human immunodeficiency virus 1, P4/R5; Wild-type; mean ± SD, at least three experiments; read-out: IC50. How it is done:
as §1
Construction of mutant recombinant HIV-1. Mutant recombinant plasmid clones of virus were generated by oligonucleotide site-directed mutagenesis as described previously (Shi, C., and J. W. Mellors. 1997. A recombinant retroviral system for rapid […] analysis of human immunodeficiency virus type 1 susceptibility to reverse transcriptase inhibitors. Antimicrob. Agents Chemother. 41:2781-5), using the p6HRT-MO plasmid. p6HRT-MO contains the entire RT and protease coding sequence as previously described (Le Grice, S. F., and F. Gruninger-Leitch. 1990. Rapid purification of homodimer and heterodimer HIV-1 reverse transcriptase by metal chelate affinity chromatography. Eur. J. Biochem. 187:307-14) and four silent restriction sites (Xma I, Mlu I, Xba I, and NgoM IV from the 5′ to 3′ end of RT at codons 14, 358, 490 and 554, respectively). After site-directed mutagenesis (QIAamp kit, QIAGEN, Valencia, Calif.), the mutated RT was ligated into pxxHIV-1LAI MO that contains the entire genome of HIV-1LAI and the same silent restriction sites as p6HRT-MO. Infectious virus was generated by electroporating the mutated xxHIV-1LAI MO plasmid into MT-2 cells as described above. All mutations in recombinant viruses were confirmed by full-length sequencing of the entire RT coding region.

A value given as a limit tells only on which side of the number the result lay.

Regarding `Cc1cn([C@H]2C[C@H](N=[N+]=[N-])[C@@H](CO)O2)c(=O)[nH]c1=O` [AZT, 3′-azido-3′-dideoxythymidine], the IC50 in assay [1] (Human immunodeficiency virus 1, P4/R5, passage 1, AZT concentration 25 μM) is 21 µM; in assay [1] (Human immunodeficiency virus 1, P4/R5, passage 10, AZT concentration 50 μM) it was 34 µM; in assay [1] (Human immunodeficiency virus 1, P4/R5, passage 25, AZT concentration 100 μM, M41L, D67D/N, L210W, L214F, T215Y), 126 µM; in assay [1] (Human immunodeficiency virus 1, P4/R5, passage 30, AZT concentration 150 μM, M41L, D67D/N, L210W, L214F, T215Y), 181 µM; in assay [1] (Human immunodeficiency virus 1, P4/R5, passage 35, AZT concentration 150 μM, M41L, D67N, L210W, L214F, T215Y), over 810 µM; in assay [2] (Human immunodeficiency virus 1, P4/R5, 67N/70R/215F/509L, mean ± SD), 28 ± 17 µM. Also, the IC50 in the assay on Wild-type HIVLAI came out at 0.2 ± 0.1 µM. Further, the Fold-Resistance in assay [1] (passage 25, M41L, D67D/N, L210W, L214F, T215Y) was 39 fold; in assay [1] (passage 30, M41L, D67D/N, L210W, L214F, T215Y) it was 62 fold; in assay [2] (67N/70R/215F/509L compared to wild-type), 128 fold.

The values above are taken from patent US20070196902A1, “Method of detecting AZT resistance in HIV” (University of Pittsburgh, priority 2006, published 2007).
